Test results published in publication PMC7413516, “Antidepressant-like activity and safety profile evaluation of 1H-imidazo[2,1-f]purine-2,4(3H,8H)-dione derivatives as 5-HT1A receptor partial agonists” (PLoS ONE, 2020).
Entries after “also recorded” stand apart in the source; their conditions may differ.

Tests used:
PDE10A = tested on: PDE10A; set-up: method as in PMID 27353547; conditions: in vitro, bioluminescent detection system; ref [8]; cited from earlier work
[1] = biological target: serotonergic 5-HT1A receptor (5-HT1AR); set-up: method as in PMID 27353547; conditions: ref [8]; cited from earlier work
mice [2] = assay: Spontaneous activity monitoring (RFID TraffiCage, 18 h); type: in vivo, Swiss albino mice; conditions: for Mean counts, spontaneous activity: 0.625 mg/kg
Experimental: (§1) The Swiss albino mice were used in the experiment. AZ-853 and AZ-861 were injected once daily for 16 consecutive days. On the 1st and 15th day the administration of the compounds, 18-h spontaneous animal activity was registered (see below). FST, as described earlier, was performed on the 14th day just before the next treatment. To ensure that the effects observed in FST are not the result of increased motility of animals, on the 13th day, just before the next administration, the locomotor activity was measured as described earlier, from 2 to 6 min after test start, i.e. in the period identical to the duration of FST. Blood and organ collection was performed on the 17th day at 24 h after the last dose and fasting.
The spontaneous activity of the mice was measured on the 1st and 15th day of the treatment with a special, innovative radiofrequency identification system (RFID-system)—TraffiCage (TSE-Systems, Germany). The test was conducted according to the method described in the literature. The animals had the transmitter (RFID) subcutaneously implanted, which tracked the time they spent in different areas of the cage. The data obtained were then grouped in a special computer program.

[3] = Liver, kidney and heart weight after repeated administration; type: in vivo, Swiss albino mice; conditions: mice, AZ-853 0.625 mg/kg, AZ-861 1.25 mg/kg
Experimental: as §1
The body weight was measured daily immediately prior to administration of the drugs. On the 17th day, the blood was collected from the Swiss albino mice sacrificed by decapitation 20 min after i.p. administration of heparin (2500 units/mouse) and then centrifuged at 600 × g (15 min, 4°C) to separate plasma. The liver, heart, and kidney were also collected and weighed.

[4] = biological target: T1, muscarinic M3 receptor (M3R) (Cavia porcellus, UniProt H0W1Z3); assay: Smooth muscle relaxant assay: carbachol-induced contraction of isolated guinea pig ileum; conditions: isolated guinea pig small intestine, carbachol 100 μM
T1 construct: from tissue; host or cells: isolated guinea pig ileum
Experimental: The experiment was carried out according to the method described previously. Male guinea pigs were sacrificed by cervical dislocation. The ileum was rapidly removed, rinsed, and cut into segments of 1.5–2.0 cm length. The tissues were mounted on a jacketed 20 mL organ bath (Tissue Organ Bath System; 750 TOBS, DMT, Denmark) filled with Krebs’s solution (NaCl 120 mM, KCl 5.6 mM, MgCl2 2.2 mM, CaCl2 2.4 mM, NaHCO3 19 mM, glucose 10 mM). The bath was aerated with 95 % O2/5 % CO2 and heated at 37°C. During the 60-min incubation period, the organ was rinsed 4 times with fresh Krebs’s buffer, and the tissues were also pre-stimulated by 60 mM KCl solution. The submaximal contraction induced by histamine (Sigma Aldrich) (2 μM) and carbachol (Sigma Aldrich) (100 μM) was evaluated in the presence and absence of the tested compounds. Amplitudes of contraction values were measured in 4 independent experiments.

mice [5] = assay: Forced swim test (FST) in mice; type: in vivo, Swiss albino mice; conditions: for reduction of immobility time in FST: acute, 60 min before test
Text: The investigated compounds AZ-853 (8-(4-(4-(2-fluorophenyl)piperazin-1-yl)butyl)-1,3-dimethyl-1H-imidazo[2,1-f]purine-2,4(3H,8H)-dione and AZ-861 (1,3-dimethyl-8-(4-(4-(3-(trifluoromethyl)phenyl)piperazin-1-yl)butyl)-1H-imidazo[2,1-f]purine-2,4(3H,8H)-dione) were synthesised in the Department of Medicinal Chemistry, Faculty of Pharmacy, Jagiellonian University, and their synthesis was described earlier. AZ-853 and AZ-861 were suspended in 1% aqueous solution of Tween 80, and WAY-100635 (Sigma, Germany) was dissolved in 0.9% saline. In acute experiments, the selected compounds AZ-853 (0.156–2.5 mg/kg) and AZ-861 (0.625–2.5 mg/kg) were injected i.p. once 60 min before tests, whereas WAY-100635 (0.3 mg/kg) was administered subcutaneously (s.c.) 45 min before the test. […] In chronic experiments, AZ-853 and AZ-861 were administered i.p. once a day (between 9:00 AM and 10:00 AM) for 16 consecutive days at the minimum active doses selected from FST experiment, i.e. 0.625 and 1.25 mg/kg, respectively. All compounds were administered to mice at a volume of 10 ml/kg and to rats at a volume of 2 ml/kg. The control groups received 1% aqueous solution of Tween 80.
The experiment was carried out according to the method of Porsolt et al.. Swiss albino mice were individually placed in a glass cylinder (25 cm high; 10 cm in diameter) containing 10 cm of water maintained at 23–25°C, and were left there for 6 min. The total duration of immobility was recorded during the last 4 min of a 6-min. A mouse was regarded as immobile when it remained floating on the water, making only small movements to keep its head above it.
as §1

[6] = 18-h monitoring, AZ-853 0.625, AZ-861 1.25 mg/kg b.w./day

T1 sequence (H0W1Z3 1-590): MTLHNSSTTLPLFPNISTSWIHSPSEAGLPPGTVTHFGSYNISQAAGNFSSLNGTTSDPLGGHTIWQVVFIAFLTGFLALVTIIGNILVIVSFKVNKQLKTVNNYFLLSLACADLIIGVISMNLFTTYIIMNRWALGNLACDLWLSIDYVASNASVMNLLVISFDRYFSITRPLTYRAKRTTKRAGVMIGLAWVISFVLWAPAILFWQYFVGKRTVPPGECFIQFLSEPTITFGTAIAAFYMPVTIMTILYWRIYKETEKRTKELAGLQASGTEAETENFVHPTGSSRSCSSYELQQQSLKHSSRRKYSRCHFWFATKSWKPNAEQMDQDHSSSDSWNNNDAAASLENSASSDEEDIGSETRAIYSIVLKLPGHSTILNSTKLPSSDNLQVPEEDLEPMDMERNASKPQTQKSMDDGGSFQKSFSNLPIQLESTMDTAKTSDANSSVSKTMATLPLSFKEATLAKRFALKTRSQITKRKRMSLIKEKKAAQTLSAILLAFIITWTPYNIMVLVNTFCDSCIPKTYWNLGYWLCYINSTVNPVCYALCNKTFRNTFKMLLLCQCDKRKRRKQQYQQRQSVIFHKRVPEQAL

Cn1c(=O)c2c(nc3n(CCCCN4CCN(c5ccccc5F)CC4)ccn23)n(C)c1=O [AZ-853, 8-(4-(4-(2-fluorophenyl)piperazin-1-yl)butyl)-1,3-dimethyl-1H-imidazo[2,1-f]purine-2,4(3H,8H)-dione]
PDE10A inhibitory activity (PDE10A): did not induce PDE4B and PDE10A inhibitory activity | Ki [1]: 0.6 nM | spontaneous activity after the 1st administration vs. control (mice [2]; [6]): increased spontaneous activity in the 1st, 7th, 12th and 13th hour | spontaneous activity after the 15th administration vs. control (mice [2]; [6]): significant increase in activity was observed only in the 1st hour; also recorded: in the 4th, 7th and 9th hour after administration, a significant reduction in spontaneous activity | Mean counts, spontaneous activity (mice [2]; after 1st administration, 1 h after administration): 422.3 counts | Mean counts, spontaneous activity (mice [2]; after 1st administration, 2 h after administration): 229.6 counts | Mean counts, spontaneous activity (mice [2]; after 1st administration, 3 h after administration): 213.6 counts | Mean counts, spontaneous activity (mice [2]; after 1st administration, 4 h after administration): 200.4 counts | Mean counts, spontaneous activity (mice [2]; after 1st administration, 5 h after administration): 179.9 counts | Mean counts, spontaneous activity (mice [2]; after 1st administration, 6 h after administration): 236.7 counts | Mean counts, spontaneous activity (mice [2]; after 1st administration, 7 h after administration): 254.4 counts | Mean counts, spontaneous activity (mice [2]; after 1st administration, 8 h after administration): 265.9 counts | Mean counts, spontaneous activity (mice [2]; after 1st administration, 9 h after administration): 189.1 counts | Mean counts, spontaneous activity (mice [2]; after 1st administration, 10 h after administration): 250.4 counts | Mean counts, spontaneous activity (mice [2]; after 1st administration, 11 h after administration): 226.9 counts | Mean counts, spontaneous activity (mice [2]; after 1st administration, 12 h after administration): 397.9 counts | Mean counts, spontaneous activity (mice [2]; after 1st administration, 13 h after administration): 346.3 counts | Mean counts, spontaneous activity (mice [2]; after 1st administration, 14 h after administration): 365.0 counts | Mean counts, spontaneous activity (mice [2]; after 1st administration, 15 h after administration): 380.1 counts | Mean counts, spontaneous activity (mice [2]; after 1st administration, 16 h after administration): 407.7 counts | Mean counts, spontaneous activity (mice [2]; after 1st administration, 17 h after administration): 351.3 counts | Mean counts, spontaneous activity (mice [2]; after 1st administration, 18 h after administration): 351.3 counts | Mean counts, spontaneous activity (mice [2]; after 15th administration, 1 h after administration): 324.3 counts | Mean counts, spontaneous activity (mice [2]; after 15th administration, 2 h after administration): 152.7 counts | Mean counts, spontaneous activity (mice [2]; after 15th administration, 3 h after administration): 148.6 counts | Mean counts, spontaneous activity (mice [2]; after 15th administration, 4 h after administration): 120.0 counts | Mean counts, spontaneous activity (mice [2]; after 15th administration, 5 h after administration): 166.6 counts | Mean counts, spontaneous activity (mice [2]; after 15th administration, 6 h after administration): 110.9 counts | Mean counts, spontaneous activity (mice [2]; after 15th administration, 7 h after administration): 134.7 counts | Mean counts, spontaneous activity (mice [2]; after 15th administration, 8 h after administration): 144.6 counts | Mean counts, spontaneous activity (mice [2]; after 15th administration, 9 h after administration): 138.1 counts | Mean counts, spontaneous activity (mice [2]; after 15th administration, 10 h after administration): 272.4 counts | Mean counts, spontaneous activity (mice [2]; after 15th administration, 11 h after administration): 256.9 counts | Mean counts, spontaneous activity (mice [2]; after 15th administration, 12 h after administration): 347.2 counts | Mean counts, spontaneous activity (mice [2]; after 15th administration, 13 h after administration): 396.8 counts | Mean counts, spontaneous activity (mice [2]; after 15th administration, 14 h after administration): 307.7 counts | Mean counts, spontaneous activity (mice [2]; after 15th administration, 15 h after administration): 281.8 counts | Mean counts, spontaneous activity (mice [2]; after 15th administration, 16 h after administration): 249.2 counts | Mean counts, spontaneous activity (mice [2]; after 15th administration, 17 h after administration): 304.0 counts | Mean counts, spontaneous activity (mice [2]; after 15th administration, 18 h after administration): 356.3 counts | effect on liver, kidney and heart weight (% of total body weight) [3]: neither AZ-853 (0.625 mg/kg) nor AZ-861 (1.25 mg/kg) influenced | inhibition at 1 µM [4]: 2.5% | reduction of immobility time in FST (mice [5]; 0.625 mg/kg i.p.): approximately 50% | reduction of immobility time in FST (mice [5]; 1.25 mg/kg i.p.): ~58% | reduction of immobility time in FST (mice [5]; 2.5 mg/kg i.p.): ~45% | effect of WAY-100635 on the antidepressant-like action of the compound in FST (mice [5]; compound 1.25 mg/kg i.p. + WAY-100635 0.3 mg/kg s.c.): completely abolished | effect on immobility time in FST after repeated administration (mice [5]; i.p. once daily for 13 consecutive days, AZ-853 0.625 mg/kg, AZ-861 1.25 mg/kg): decreased the immobility time
